Measurements taken from article PMC12406253, “Exploration of the Neuromodulatory Properties of Fyn and GSK-3β Kinases Exploiting 7‑Azaindole-Based Inhibitors” (Journal of Medicinal Chemistry, 2025).

How the values were obtained:
GSK3β(h) = GSK3β(h) (Homo sapiens, UniProt P49841); experiment: Eurofins KinaseProfiler radiometric kinase assay; conditions: read-out: GSK3β(h) % Residual activity
[1] = system: neurospheres (NPCs from the subventricular zone); experiment: Neurosphere growth analysis (NPC proliferation); assay type: cell-based, mice; conditions: 0.1, 1, and 5 μM; 7 days
Protocol: Based on that, we further investigated the neurogenic and differentiation potential of our kinase inhibitors in cell culture of neurospheres, which are floating pools of NPCs coming from the subventricular zone (SVZ) of six-month-old mice. Particularly, we first analyzed the variation, during 7 days, in number and size of neurosphere population with and without treatment.
To investigate the effect of compounds of interest in neurospheres’ growth rate, single spheres were plated in suspension in 96-well plates (5 × 10^3 cells/well) in the presence of compounds (0.1 μM, 1 μM, and 5 μM) in complete DMEM F-12 culture medium. One image/well was acquired every day by using the Sartorius Incucyte Live-Cell Analysis System and evaluated through the Brightfield Spheroid Analysis Software Module. Only aggregates with areas larger than 400 μm^2 were considered for statistical analysis.

FYNα = FYNα (Homo sapiens, UniProt P06241); experiment: Fyn kinetics, ATP competition (Lineweaver–Burk); conditions: 0.05 and 0.3 μM compound; ATP 1.5 to 24 μM
Chain of FYNα (P06241 whole entry): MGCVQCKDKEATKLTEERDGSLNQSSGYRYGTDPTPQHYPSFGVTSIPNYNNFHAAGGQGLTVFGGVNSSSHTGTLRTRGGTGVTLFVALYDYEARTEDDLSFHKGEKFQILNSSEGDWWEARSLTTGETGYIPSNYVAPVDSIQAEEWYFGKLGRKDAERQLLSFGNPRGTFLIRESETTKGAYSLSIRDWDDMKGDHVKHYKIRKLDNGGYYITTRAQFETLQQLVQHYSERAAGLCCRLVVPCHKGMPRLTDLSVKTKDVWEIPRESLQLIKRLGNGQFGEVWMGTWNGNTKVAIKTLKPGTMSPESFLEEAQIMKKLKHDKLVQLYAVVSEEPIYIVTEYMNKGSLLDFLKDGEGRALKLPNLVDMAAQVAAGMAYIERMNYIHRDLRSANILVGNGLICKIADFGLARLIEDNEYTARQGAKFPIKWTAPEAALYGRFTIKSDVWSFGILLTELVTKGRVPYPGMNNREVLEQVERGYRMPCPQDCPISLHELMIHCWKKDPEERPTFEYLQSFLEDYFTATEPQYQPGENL

[2] = BBB permeability in hCMEC/D3 transwell model; conditions: human
Protocol: To this aim, the immortalized human brain endothelial cell line (hCMEC/D3) was used since it mimics the brain endothelium-restricted permeability and expresses most of the transporters and receptors present in vivo, constituting a valuable in vitro model of the human BBB crossing system.
BBB permeability assay was conducted as described in Albertini et al. The brain microvascular endothelial cells (hCMEC/D3) were seeded at the density of 5 × 10^4 cells per cm^2 in the upper compartment of Transwell filters (polyester, pore size 0.4 μm, 12-well tissue culture transwell; Corning), precoated with rat tail collagen type I (0.1 mg/mL; Roche). They were grown for 7 days up to confluence in Endothelial Cell Growth Medium 2 (Promocell), supplemented with penicillin/streptomycin 100 U/mL, in a humidified, 5% CO2 incubator at 37 °C. Confluent monolayers were washed in prewarmed HBSS buffer, and the selected compounds were added to the apical (AP) side at a concentration of 100 μM. […] Samples (100 μL) were collected from the BL side at different time points (15, 30, 60, and 90 min) and then replaced with the corresponding volume of HBSS buffer. […] The concentration of compounds was determined using a Ultimate 3000 HPLC system (ThermoFisher) with UV–vis detection at the maximum absorption wavelength of each compound except for inulin as determined by a spectrophotometric method using a Tecan Sunrise absorbance microplate reader. […] The permeability coefficient (Papp) was calculated as follows: Papp = (ΔQ/Δt)/(C [donor] × A), where ΔQ/Δt represents the permeation rate (mol/s), C [donor] is the initial compound concentration in the donor compartment at time 0 (mol/cm^3), and A represents the surface area of the filter (1.12 cm^2).

Chain of GSK3β(h) (P49841 whole entry): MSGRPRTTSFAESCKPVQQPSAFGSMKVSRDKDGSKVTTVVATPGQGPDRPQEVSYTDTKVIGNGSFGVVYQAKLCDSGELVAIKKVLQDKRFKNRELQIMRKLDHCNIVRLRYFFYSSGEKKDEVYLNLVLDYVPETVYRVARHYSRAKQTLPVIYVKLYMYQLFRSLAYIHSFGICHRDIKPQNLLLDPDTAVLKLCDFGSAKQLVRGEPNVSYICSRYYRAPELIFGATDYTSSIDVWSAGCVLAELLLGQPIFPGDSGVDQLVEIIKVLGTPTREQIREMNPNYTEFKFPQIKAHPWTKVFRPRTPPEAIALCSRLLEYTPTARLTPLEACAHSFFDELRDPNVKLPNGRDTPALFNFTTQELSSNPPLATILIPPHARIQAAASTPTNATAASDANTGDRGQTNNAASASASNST

| Compound | remaining activity at 10 µM (GSK3β(h)) [%] | Neurosphere number (object count per image), neurogenesis [1] | Mechanism of Fyn inhibition with respect to ATP (FYNα) | Papp A→B at 90 min, 100 μM [2] [×10⁻⁶ cm/s] |
| --- | --- | --- | --- | --- |
| Br.Cc1sc(NCc2ccccc2)nc1-c1c[nH]c2ncc(Br)cc12 [Compound 41, N-Benzyl-4-(5-bromo-1H-pyrrolo[2,3-b]pyridin-3-yl)-5-methylthiazol-2-amine Hydrobromide] | 58 | – | – | – |
| Br.Cc1sc(NCc2ccnc(Cl)c2)nc1-c1c[nH]c2ncccc12 [Compound 43, N-((2-Chloropyridin-4-yl)methyl)-5-methyl-4-(1H-pyrrolo[2,3-b]pyridin-3-yl)thiazol-2-amine Hydrobromide] | – | not effective | competitive inhibition with respect to ATP | 32 ± 5.38 |
